Source: ChEMBL document CHEMBL4376863, “Identification of Selective Inhibitors of Plasmodium N-Myristoyltransferase by High-Throughput Screening” (J Med Chem, 2020)
Activity calls are given as the source filed them. The rule behind the calls is not given here.

How the values were obtained:
[1] = molecular target: T1, Glycylpeptide N-tetradecanoyltransferase (Plasmodium falciparum (isolate 3D7)) (UniProt Q8ILW6); experiment: Binding affinity to Plasmodium falciparum NMT (27 to 410 residues) expressed in Escherichia coli Rosetta (DE3) assessed as change in melting temperature at 100 uM in presence of 100 uM myristoyl-CoA by Sypro orange dye based differential scanning fluorimetry (reference value: 0 degreeC)
T1 sequence (whole entry): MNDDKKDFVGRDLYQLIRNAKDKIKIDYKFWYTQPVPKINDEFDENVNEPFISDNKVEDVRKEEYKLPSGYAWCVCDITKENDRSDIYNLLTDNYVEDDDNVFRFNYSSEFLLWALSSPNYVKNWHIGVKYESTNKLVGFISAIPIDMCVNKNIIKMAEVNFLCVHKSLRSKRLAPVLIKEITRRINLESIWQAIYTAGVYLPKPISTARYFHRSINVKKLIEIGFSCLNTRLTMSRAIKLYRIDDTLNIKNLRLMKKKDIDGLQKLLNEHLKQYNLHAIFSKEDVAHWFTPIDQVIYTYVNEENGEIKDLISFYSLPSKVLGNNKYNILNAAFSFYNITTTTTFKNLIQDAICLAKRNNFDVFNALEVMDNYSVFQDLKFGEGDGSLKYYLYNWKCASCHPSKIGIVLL

Plasmodium falciparum = experiment: Antiplasmodial activity against asexual blood stage Plasmodium falciparum 3D7A MR4 infected in human RBCs assessed as decrease in [3H]-hypoxanthine incorporation pretreated for 24 hrs in presence of hypoxanthine followed by [3H]-hypoxanthine addition after 24 hrs by microbeta scintillation counter analysis; format: functional, organism-based
[2] = molecular target: T1, Glycylpeptide N-tetradecanoyltransferase (Plasmodium falciparum (isolate 3D7)); experiment: Competitive inhibition of Plasmodium falciparum NMT (27 to 410 residues) expressed in Escherichia coli Rosetta (DE3) using H-GLYVSRLFNRLFQKK-NH2 as substrate
[3] = molecular target: T1, Glycylpeptide N-tetradecanoyltransferase (Plasmodium falciparum (isolate 3D7)); experiment: Binding affinity to Plasmodium falciparum NMT (27 to 410 residues) expressed in Escherichia coli Rosetta (DE3) assessed as change in melting temperature at 100 uM in absence of 100 uM myristoyl-CoA by Sypro orange dye based differential scanning fluorimetry (reference value: 0 degreeC)

For `O=C(c1cccc(NCc2cc(-c3ccc(Cl)cc3)c[nH]c2=O)c1)N1CCOCC1`, the ΔTm [1] was 2.16 °C, the Activity (Plasmodium falciparum) was “inactive” and the inhibition [2] was “Active”. The ΔTm [3] was -0.3 °C.
For `Clc1cccc(O[C@H]2C[C@H](NCc3cnc4[nH]ccc4c3)C2)c1Cl`, the ΔTm [1] was 6.57 °C, the Activity (Plasmodium falciparum) was “inactive” and the inhibition [2] was “Active”. It also gave a ΔTm [3] of -2.91 °C.
For `CCN(c1ccccc1)S(=O)(=O)c1ccc(Cl)c(C(=O)Nc2ccccc2N2CCCC2=O)c1`, the ΔTm [1] was 7.33 °C, the Activity (Plasmodium falciparum) was “inactive” and the ΔTm [3] was 1.42 °C.
In the case of `Cc1ccc(-n2nc(C(=O)N3CCCN(C)CC3)c3ccccc32)cc1`, the ΔTm [1] is reported as 6.17 °C, the Activity (Plasmodium falciparum) is reported as “inactive” and the inhibition [2] is reported as “Active”. It also gave a ΔTm [3] of -0.02 °C.
With `O=C(c1ccc2c(c1)N(Cc1ccccc1)C(=O)c1ccccc1[S+]2[O-])N1CCCCC1` (stereo not drawn) the ΔTm [1] was 8.05 °C, the Activity (Plasmodium falciparum) was “inactive” and the ΔTm [3] was 1.84 °C.
